# Assay results from paper PMC5718519, “Crystal structures of ternary complexes of archaeal B-family DNA polymerases” (PLoS ONE, 2017).
# Molecular target: T1, KOD DNA pol (exo-) (Thermococcus kodakarensis, UniProt P77933, D141A/E143A)
# T1 construct: exonuclease-deficient mature polymerase (inteins absent); codon-optimized, pET24a, E. coli BL21(DE3); heparin and Superdex 75; no tag mentioned
# Assay: X-ray crystal structure of closed ternary complex
# Assay type: binding
# Details: with ddC-terminated primer/template DNA; Mg2+ (site A) and two Mn2+ (sites B, C); polymerase active site; pH 7.5
compound,measurement,value
"Nc1ncnc2c1ncn2[C@H]1C[C@H](O)[C@@H](COP(=O)(O)OP(=O)(O)OP(=O)(O)O)O1 [dATP, 2’-deoxy-adenosine-5’-triphosphate]",X-ray crystal structure of closed ternary complex,KOD DNA pol binds the incoming dATP in a pocket formed by the palm
